The target in one test is EGFR (UniProt P00533).
EGFR, sequence (P00533 whole entry, looked up): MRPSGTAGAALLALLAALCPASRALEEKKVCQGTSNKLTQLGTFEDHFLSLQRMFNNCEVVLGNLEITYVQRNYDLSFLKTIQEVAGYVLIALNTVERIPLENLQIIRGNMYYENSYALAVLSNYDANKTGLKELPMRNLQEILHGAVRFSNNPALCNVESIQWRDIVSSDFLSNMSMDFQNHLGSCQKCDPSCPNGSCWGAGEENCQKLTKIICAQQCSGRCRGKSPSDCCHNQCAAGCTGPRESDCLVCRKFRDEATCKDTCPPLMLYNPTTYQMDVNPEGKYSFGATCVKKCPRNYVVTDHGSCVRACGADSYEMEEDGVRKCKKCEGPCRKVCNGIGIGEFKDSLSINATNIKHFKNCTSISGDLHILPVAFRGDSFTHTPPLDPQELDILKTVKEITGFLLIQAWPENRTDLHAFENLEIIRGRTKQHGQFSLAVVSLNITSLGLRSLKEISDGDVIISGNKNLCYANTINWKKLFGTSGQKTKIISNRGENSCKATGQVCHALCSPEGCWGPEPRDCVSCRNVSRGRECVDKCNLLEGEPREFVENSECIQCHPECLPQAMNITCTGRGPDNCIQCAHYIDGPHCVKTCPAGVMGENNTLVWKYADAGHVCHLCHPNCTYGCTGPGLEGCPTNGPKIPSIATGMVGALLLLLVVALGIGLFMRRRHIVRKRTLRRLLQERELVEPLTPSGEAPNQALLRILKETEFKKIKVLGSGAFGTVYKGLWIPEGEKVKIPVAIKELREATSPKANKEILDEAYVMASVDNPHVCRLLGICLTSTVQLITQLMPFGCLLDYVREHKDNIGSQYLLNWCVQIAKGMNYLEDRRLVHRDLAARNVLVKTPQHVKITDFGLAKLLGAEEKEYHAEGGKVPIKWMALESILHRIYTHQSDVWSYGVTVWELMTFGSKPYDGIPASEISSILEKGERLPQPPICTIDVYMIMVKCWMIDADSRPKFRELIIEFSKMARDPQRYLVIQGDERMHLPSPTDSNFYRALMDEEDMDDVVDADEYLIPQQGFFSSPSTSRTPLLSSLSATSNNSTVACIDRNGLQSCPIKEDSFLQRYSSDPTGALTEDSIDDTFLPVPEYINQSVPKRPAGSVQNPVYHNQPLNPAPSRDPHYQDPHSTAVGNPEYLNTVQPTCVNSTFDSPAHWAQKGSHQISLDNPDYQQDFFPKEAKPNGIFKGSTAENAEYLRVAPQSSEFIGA
Details: not given
EGFR (human), sequence (P00533 whole entry, looked up): as above
What is called IC50 is the point on the concentration scale where inhibition reaches its midpoint. In turn, `COc1cc(/C=C(\C#N)C(=O)c2ccc(C)cc2)cc(CSCc2ccccc2)c1O` returned an IC50 of 4.5 µM.

The next test has as its target EGFR (human) (UniProt P00533). Particulars: her 14.
With `COc1cc(/C=C(\C#N)C(N)=O)cc(CSc2ccccc2C(=O)O)c1O`, the IC50 was more than 50 µM.

Turning to `COc1cc(/C=C(\C#N)C(=O)c2ccc(O)c(O)c2)cc(CSCc2ccccc2)c1O`, the half-inhibitory concentration (IC50) is 2 µM. This counts as single-digit micromolar.

The molecule `COc1cc(/C=C(\C#N)C(N)=O)cc(CSCc2ccc(Cl)cc2)c1O` yielded an IC50 of 20 µM.

Consider `Cc1cc(C=C(C#N)C#N)cc(O)c1O`, for which the IC50 is 13 µM. Compared with the last molecule, the IC50 is about 1.5-fold lower.

The molecule `COc1cc(/C=C(\C#N)C(N)=O)cc(CSc2nc3ccccc3[nH]2)c1O` displayed an IC50 of 35 µM.

Consider `COc1cc(C=C(C#N)C#N)cc(CSCC(=O)O)c1O`, for which the 50% inhibitory concentration (IC50) was more than 50 µM.

In the case of `N#C/C(=C\c1cc(O)c(O)c(CSCc2ccccc2)c1)C(N)=O`, the IC50 was found to be 3 µM. That is a single-digit micromolar value.

Molecule `COc1cc(/C=C(\C#N)C(N)=O)cc(CSc2ccc(O)cc2)c1O` came in with an IC50 of 2 µM.

In the case of `COc1cc(/C=C(\C#N)C(N)=O)cc(CSCc2ccccc2)c1O`, the IC50 was determined as 12.5 µM.

As to `COc1cc(/C=C(\C#N)C(N)=O)cc(CSCc2ccccc2Cl)c1O`, the IC50 worked out at 10 µM.

`N#C/C(=C\c1cc(O)c(O)c(CSc2nc3ccccc3s2)c1)C(N)=O` registered an IC50 of more than 50 µM.

In turn, `COc1cc(/C=C(\C#N)C(N)=O)cc(CSc2ccccn2)c1O` came in with an IC50 of 16 µM.

Molecule `COc1cc(C=C(C#N)C#N)cc(CS(=O)(=O)c2ccc(C)cc2)c1O` had an IC50 of 15 µM.

Take `COc1cc(/C=C(\C#N)C(N)=O)cc(CSc2ccc3ccccc3c2)c1O`: the IC50 was found to be 10 µM.

`COc1cc(C=C(C#N)C#N)cc(CSc2ccccc2C(=O)O)c1O` registered an IC50 of more than 50 µM.

`COc1cc(/C=C(\C#N)C(N)=O)cc(CSc2ccccc2)c1O` showed an IC50 of 12.5 µM. In other words, the double-digit micromolar range.

In turn, `COc1cc(C=C(C#N)C#N)cc(CSc2ccccc2)c1O` had an IC50 of 6 µM.

For the molecule `COc1cc(/C=C(\C#N)C(N)=O)cc(CSc2nc3ccccc3o2)c1O`, the IC50 was 6 µM.

In turn, `COc1cc(/C=C(\C#N)C(N)=O)cc(CSc2ccccc2NC(C)=O)c1O` registered an IC50 of 9 µM. Compared with the last molecule, the IC50 is about 1.5-fold higher.
